Reference: patent publication US5789604A, “Isolation, characterization and structures of new antibiotic components produced by fungal culture 07F275” (priority 1993, dated 1998)

Experiments:
Pythium ultimam = assay: in vitro inhibition of mycelial growth, PYTHUL; type: cell-based; conditions: for activity against Pythium: in vitro
Description: (§1) in Vitro Evaluation of the Inhibition of the Mycelial Growth by Target (Table 3)
(§2) Severe soilborne diseases such as damping off, seedling blight, crown rot, and root rot, among others are caused by certain plant pathogenic fungi. An in Vitro assay is conducted to determine whether test compounds will inhibit the mycelial growth of said fungi. Pathogens, the method of testing, and the rating system used are reported below.
(§3) General Procedure for the in Vitro Fungicide Screen Assay fungi included the following plant pathogens: FUSOXC Fusarium oxysporum Schlechtend: Fr.f.sp. cucumerinim J. H. Owen
PYTHUL Pythium ultimam Trow
(§4) The test compound (2.5-10 mg) is dissolved in 0.5 ml acetone, diluted with 4.5 ml sterile deionized water, and mixed with 95 ml of an autoclaved and partially cooled, chemically defined agar medium in a 250 ml flask. Test compounds that are insoluble are prepared as a fine suspension ultrasonically or with a glass tissue grinder, before addition to the medium. The chemically defined medium (CDM) used in these experiments is as follows:
(§5) CDM is sterilized by autoclaving or by filtration through a […]
(§6) The mixture of test compound and agar medium as described above is poured into several 100 mm×15 mm sterile plastic plates and allowed to solidify. The surface of each plate is inoculated with a single disc of mycelium and agar cut with an 8 mm diameter cork borer from actively growing cultures of assay fungi on a chemically defined agar medium. The plates are incubated at room temperature. Growth inhibition is determined when the mycelial growth on unamended control media has reached the edge of the petri plates. The time interval varies depending on the growth rate of the fungus. Each colony diameter is measured and compared with the untreated control and the percent inhibition is calculated as follows: [formula]
(§7) Each test includes a solvent blank consisting of the formulation without a test compound in addition to the untreated control.

[1] = test system: Rhizoctonia solani Kuehn AG1 1A; assay: in vitro inhibition of mycelial growth, RHIZSO; type: cell-based
Description: as §1, §2, §3
(§8) RHIZSO Rhizoctonia solani Kuehn AG1 1A
as §4, §5, §6, §7

Plasmopara viticola = assay: in vivo evaluation as fungicidal agents, grape downy mildew; conditions: for disease control rating GDM: grape downy mildew
Description: (§9) in Vivo Evaluation as Fungicidal Agents (Table 2)
(§10) Compounds are dissolved in acetone, diluted to the desired concentration with water and surfactant and sprayed onto the test plants. After drying, the test plants are treated with fungal inoculum. When disease symptom development is optimal, plants are rated for disease control. Inoculated untreated plants, solvent/surfactant treated plants and plants treated with a reference standard are used for comparison.
(§11) Compounds are rated for control of each disease according to the rating scale shown below: […]

Cercospora beticola = assay: in vivo evaluation as fungicidal agents, sugar beet cercospora
Description: as §9, §10
SBC Sugar beet cercospora
as §11

other fungi = assay: in vitro inhibition of mycelial growth, other fungi; type: cell-based
Description: as §1, §2, §3
(§12) PSDCHE Psudocercosporella herpotrichoides Deighton
as §8
The test compound (2.5-10 mg) is dissolved in 0.5 ml acetone, diluted with 4.5 ml sterile deionized water, and mixed with 95 ml of an autoclaved and partially cooled, chemically defined agar medium in a 250 ml flask. […]
The mixture of test compound and agar medium as described above is poured into several 100 mm×15 mm sterile plastic plates and allowed to solidify. […] Growth inhibition is determined when the mycelial growth on unamended control media has reached the edge of the petri plates. […] Each colony diameter is measured and compared with the untreated control and the percent inhibition is calculated as follows: [formula]

[2] = test system: Erysiphe graminis f.sp. tritici; assay: in vivo evaluation as fungicidal agents, wheat powdery mildew
Description: as §9, §10
WPM Wheat powdery mildew
as §11

Pyricularia oryzae = conditions: in vivo
[3] = test system: Fusarium oxysporum Schlechtend: Fr.f.sp. cucumerinim; assay: in vitro inhibition of mycelial growth, FUSOXC; type: cell-based
Description: as §1, §2, §3, §4, §5, §6, §7

Leptosphaeria nodurum = assay: in vivo evaluation as fungicidal agents, wheat septoria nodorum
Alternaria solani = assay: in vivo evaluation as fungicidal agents, tomato early blight
Description: as §9, §10, §11

Botrytis cinerea = assay: in vivo evaluation as fungicidal agents, pepper botrytis
Description: as §9, §10
PB Pepper botrytis Botrytis cinerea
as §11

Venturia inaequalis = assay: in vivo evaluation as fungicidal agents, apple scab
Description: as §9, §10
AS Apple scab Venturia inaequalis
as §11

[4] = test system: Psudocercosporella herpotrichoides; assay: in vitro inhibition of mycelial growth, PSDCHE; type: cell-based
Description: as §1, §2, §3, §12, §4, §5, §6, §7

O=C1[C@@H]2O[C@@H]2C2(Oc3cccc4cccc(c34)O2)[C@]23O[C@]12[C@H](O)C=CC3=O [07F275sigma]
0: mycelial inhibition FUSOXC ([3]; 1.0 ppm) | mycelial inhibition FUSOXC ([3]; 10.0 ppm) | mycelial inhibition FUSOXC ([3]; 25.0 ppm)
about 85%: reduction of disease severity, GDM (Plasmopara viticola; greenhouse test, 200 ppm) | reduction of disease severity, RB (Pyricularia oryzae)
0 (0): disease control rating GDM (Plasmopara viticola; 12.5 ppm) | disease control rating SBC (Cercospora beticola; 12.5 ppm) | disease control rating SBC (Cercospora beticola; 50.0 ppm) | disease control rating SBC (Cercospora beticola; 200.0 ppm) | disease control rating WPM ([2]; 12.5 ppm) | disease control rating WPM ([2]; 50.0 ppm) | disease control rating WPM ([2]; 200.0 ppm) | disease control rating WSN (Leptosphaeria nodurum; 12.5 ppm) | disease control rating WSN (Leptosphaeria nodurum; 50.0 ppm) | disease control rating WSN (Leptosphaeria nodurum; 200.0 ppm) | disease control rating TEB (Alternaria solani; 12.5 ppm) | disease control rating TEB (Alternaria solani; 50.0 ppm) | disease control rating TEB (Alternaria solani; 200.0 ppm) | disease control rating PB (Botrytis cinerea; 12.5 ppm) | disease control rating PB (Botrytis cinerea; 50.0 ppm) | disease control rating PB (Botrytis cinerea; 200.0 ppm) | disease control rating AS (Venturia inaequalis; 12.5 ppm) | disease control rating AS (Venturia inaequalis; 50.0 ppm) | disease control rating AS (Venturia inaequalis; 200.0 ppm)
1: mycelial inhibition RHIZSO ([1]; 1.0 ppm) | mycelial inhibition RHIZSO ([1]; 10.0 ppm) | mycelial inhibition RHIZSO ([1]; 25.0 ppm) | mycelial inhibition PSDCHE ([4]; 1.0 ppm) | mycelial inhibition PSDCHE ([4]; 10.0 ppm) | mycelial inhibition PSDCHE ([4]; 25.0 ppm)
4 (45-59): disease control rating GDM (Plasmopara viticola; 50.0 ppm)
active: activity against Pythium (Pythium ultimam; 10 ppm)
Little to no control: disease control, GDM (Plasmopara viticola; greenhouse test, dosages lower than 200 ppm) | disease control, RB (Pyricularia oryzae)
6 (75-89): disease control rating GDM (Plasmopara viticola; 200.0 ppm)
3: mycelial inhibition PYTHUL (Pythium ultimam; 1.0 ppm)
Little or no activity: activity against other fungi in vitro (other fungi)
7: mycelial inhibition PYTHUL (Pythium ultimam; 10.0 ppm) | mycelial inhibition PYTHUL (Pythium ultimam; 25.0 ppm)
not at lower dosages: activity against Pythium (Pythium ultimam; dosages lower than 10 ppm)
